Measured values published in PubChem BioAssay (NCI).
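All cell lines were grown in 96-well plates and treated with compound for 48 hours. TGI denotes the concentration required for complete inhibition of growth.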

Key:
Assay in all cases: NCI tumour cell line growth inhibition, 48 h
OVCAR-3 ovarian = system: OVCAR-3 ovarian
RXF 393 renal = system: RXF 393 renal
CCRF-CEM leukemia = system: CCRF-CEM leukemia
MOLT-4 leukemia = system: MOLT-4 leukemia
MALME-3M melanoma = system: MALME-3M melanoma
HT29 colon = system: HT29 colon
SK-MEL-28 melanoma = system: SK-MEL-28 melanoma
SK-OV-3 ovarian = system: SK-OV-3 ovarian
CAKI-1 renal = system: CAKI-1 renal
T-47D breast = system: T-47D breast
MDA-MB-231 breast = system: MDA-MB-231 breast

Measured: TGI

O=C1c2cc(Cl)ccc2NC(=NCCCl)C2CSCN12 (stereo unspecified)
> 100 µM: OVCAR-3 ovarian | RXF 393 renal | CCRF-CEM leukemia | MOLT-4 leukemia | MALME-3M melanoma | HT29 colon | SK-MEL-28 melanoma | SK-OV-3 ovarian | CAKI-1 renal | T-47D breast | MDA-MB-231 breast
